Data reported in patent US7368424B2, “Acylated nonadepsipeptides” (AiCuris GmbH & Co. KG, priority 2003, dated 2008).
≈ marks a conversion by molar mass, not a printed value. Read-outs that look alike come from different tables or passages of the source. *1 amine or outer side, *2 acyl side, *3 side chain or, on linkers, in order; H or OH if unused. Where a SMILES comes first, the peptide text is derived from it. Bridges are numbered along the chain shown (N, C = ends). [ ]: non-standard residue; d: D form. The star is where a group is joined. ξ: configuration not given here. Phe(3R-OH) = O=C([C@@H](N[*:1])[C@H](O[*:3])c1ccccc1)[*:2]; Asn(3S-OH) = NC(=O)[C@@H](O)[C@H](N)C(=O)O; Leu(3R-OH) = CC(C)[C@@H](O)[C@H](N)C(=O)O; d(tBuAla) = CC(C)(C)C[C@@H](N)C(=O)O; tBuAla = CC(C)(C)C[C@H](N)C(=O)O; 2Pal = N[C@@H](Cc1ccccn1)C(=O)O; aThr = C[C@H](O)[C@H](N)C(=O)O; ξIle = CC[C@H](C)C(N)C(=O)O; Ac6c = NC1(C(=O)O)CCCCC1; Cbz = O=C(OCc1ccccc1)*; Bn = c1ccc(C*)cc1; OtBu = CC(C)(C)O*

Assays:
[1] = system: E. faecium L4001; format: cell-based, Enterococcus faecium
[2] = system: Streptococcus pneumoniae G9a; format: cell-based
Experimental: (§1) Determination of the Minimum Inhibitory Concentration (MIC):
(§2) The MIC is determined in the liquid dilution test in accordance with the NCCLS guidelines. Overnight cultures of Staphylococcus aureus 133, Enterococcus faecalis 27159, E. faecium 4147 and Streptococcus pneumoniae G9a are incubated with the desired test substances in a 1:2 dilution series. The MIC determination is carried out with a cell count of 10^5 microbes per ml in Isosensitest medium (Difco, Irvine/USA), with the exception of S. pneumoniae which is tested in BHI broth (Difco, Irvine/USA) with 10% bovine serum with a cell count of 10^6 microbes per ml. The cultures are incubated at 37° C. for 18-24 hours, S. pneumoniae in the presence of 10% CO2.
(§3) The MIC is defined as the lowest concentration of each substance at which visible bacterial growth no longer occurs. The MIC values are reported in μg/ml.

[3] = system: Staphylococcus aureus 133; format: cell-based
Experimental: as §1, §2, §3

[4] = system: E. faecalis ICB 27159; format: cell-based, Enterococcus faecalis
Experimental: as §1, §2, §3

[5] = BHI broth with 10% bovine serum, 10^6 microbes per ml, 10% CO2, 37° C., 18-24 hours
[6] = Isosensitest medium, 10^5 microbes per ml, 37° C., 18-24 hours

What does the source list for CC[C@H](C)[C@@H]1NC(=O)[C@@H](CCCNC(=N)N)NC(=O)[C@H](CC(C)C)NC(=O)[C@H]([C@H](O)C(C)C)NC(=O)[C@@H](NC(=O)[C@H](Cc2ccccn2)NC(=O)[C@H](N)CC(C)(C)C)[C@@H](c2ccccc2)OC(=O)[C@H](CO)NC(=O)[C@H]([C@H](O)C(N)=O)NC(=O)CNC(=O)[C@H]([C@H](C)O)NC1=O [Example 97, 3-tert-Butyl-D-alanyl-3-(2-pyridyl)-L-alanyl-de(1-D-leucyl-2-L-leucyl)lysobactin tristrifluoroacetate] (H-[d(tBuAla)][2Pal][Phe(3R-OH)][Leu(3R-OH)]L[dR]I[aThr]G[Asn(3S-OH)]S; ester 3-C)?
MIC E. faecium L4001 ([1]; L4001): 1 µg/mL (≈ 0.754 µM); MIC S. pneumoniae ([2]; G9a): 0.125 µg/mL (≈ 0.0943 µM); MIC S. aureus 133 [3]; 133: 1 µg/mL (≈ 0.754 µM); MIC E. faecalis ICB 27159 ([4]; ICB 27159): 0.5 µg/mL (≈ 0.377 µM)

How did the “MIC E. faecium L4001” value ([1]; L4001) turn out when CC[C@H](C)C1NC(=O)[C@@H](CCCNC(=N)N)NC(=O)[C@H](CC(C)C)NC(=O)[C@H]([C@H](O)C(C)C)NC(=O)[C@@H](NC(=O)[C@H](COCc2ccccc2)NC(=O)[C@H](N)CC(C)(C)C)[C@@H](c2ccccc2)OC(=O)[C@H](CO)NC(=O)[C@H]([C@H](O)C(N)=O)NC(=O)CNC(=O)[C@H]([C@H](C)O)NC1=O.O=C(O)C(F)(F)F.O=C(O)C(F)(F)F (stereo partly drawn) [Example 99, (3-tert-Butyl-D-alanyl-O-benzyl-L-seryl)-de(1-D-leucyl-2-L-leucyl)lysobactin bistrifluoroacetate] (H-[d(tBuAla)]S(Bn)[Phe(3R-OH)][Leu(3R-OH)]L[dR][ξIle][aThr]G[Asn(3S-OH)]S; ester 3-C) was run?
The value was 0.063 µg/mL.

And the “MIC S. pneumoniae” value [2, 5]?
The value was “≦0.063 μg/ml”.

And the “MIC S. aureus 133” value [3]; 133?
Its value is 0.25 µg/mL.

What about the “MIC E. faecalis ICB 27159” value ([4]; ICB 27159) of the same compound?
Its value is 0.063 µg/mL.

For CC[C@H](C)C1NC(=O)[C@@H](CCCNC(=N)N)NC(=O)[C@H](CC(C)C)NC(=O)[C@H]([C@H](O)C(C)C)NC(=O)[C@@H](NC(=O)[C@H](CC(=O)OC(C)(C)C)NC(=O)[C@H](N)CC(C)(C)C)[C@@H](c2ccccc2)OC(=O)[C@H](CO)NC(=O)[C@H]([C@H](O)C(N)=O)NC(=O)CNC(=O)[C@H]([C@H](C)O)NC1=O.O=C(O)C(F)(F)F.O=C(O)C(F)(F)F (stereo partly drawn) [Example 101, (2S)-2-[(3-tert-Butyl-D-alanyl)amino]-4-tert-butoxy-4-oxobutanoyl-de(1-D-leucyl-2-L-leucyl)lysobactin bistri-fluoroacetate] (H-[d(tBuAla)]D(OtBu)[Phe(3R-OH)][Leu(3R-OH)]L[dR][ξIle][aThr]G[Asn(3S-OH)]S; ester 3-C), which “MIC E. faecium L4001” value [1, 6] is on record?
Its value is 1 µg/mL.

What about the “MIC S. pneumoniae” value [2, 5] of the same compound?
Its value is 0.5 µg/mL.

And the “MIC S. aureus 133” value [3, 6]?
The value was 1 µg/mL.

What about the “MIC E. faecalis ICB 27159” value [4, 6] of the same compound?
Its value is 1 µg/mL.

How did the “MIC E. faecium L4001” value [1, 6] turn out when CC[C@H](C)C1NC(=O)[C@@H](CCCNC(=N)N)NC(=O)[C@H](CC(C)C)NC(=O)[C@H]([C@H](O)C(C)C)NC(=O)[C@@H](NC(=O)[C@H](CC(C)(C)C)NC(=O)C2(N)CCCCC2)[C@@H](c2ccccc2)OC(=O)[C@H](CO)NC(=O)[C@H]([C@H](O)C(N)=O)NC(=O)CNC(=O)[C@H]([C@H](C)O)NC1=O.O=C(O)C(F)(F)F.O=C(O)C(F)(F)F (stereo partly drawn) [Example 105, N-[(1-Aminocyclohexyl)carbonyl]-(3-tert-butyl-D-alanyl)-de(1-D-leucyl-2-L-leucyl)lysobactin bistri-fluoroacetate] (H-[Ac6c][tBuAla][Phe(3R-OH)][Leu(3R-OH)]L[dR][ξIle][aThr]G[Asn(3S-OH)]S; ester 3-C) was run?
The value was 0.5 µg/mL.

And the “MIC S. pneumoniae” value [2, 5]?
Its value is 0.063 µg/mL.

And the “MIC S. aureus 133” value [3, 6]?
Its value is 0.5 µg/mL.

And the “MIC E. faecalis ICB 27159” value [4, 6]?
The value was 1 µg/mL.

CC[C@H](C)C1NC(=O)[C@@H](CCCNC(=N)N)NC(=O)[C@H](CC(C)C)NC(=O)[C@H]([C@H](O)C(C)C)NC(=O)[C@@H](NC(=O)[C@H](CCCCNC(=O)OCc2ccccc2)NC(=O)[C@H](N)CC(C)(C)C)[C@@H](c2ccccc2)OC(=O)[C@H](CO)NC(=O)[C@H]([C@H](O)C(N)=O)NC(=O)CNC(=O)[C@H]([C@H](C)O)NC1=O.O=C(O)C(F)(F)F.O=C(O)C(F)(F)F (stereo partly drawn) [Example 107, {(3-tert-Butylalanyl)-[N^6-(benzyloxycarbonyl)lysyl]}-de(1-D-leucyl-2-L-leucyl)lysobactin bistrifluoroacetate] (H-[d(tBuAla)]K(Cbz)[Phe(3R-OH)][Leu(3R-OH)]L[dR][ξIle][aThr]G[Asn(3S-OH)]S; ester 3-C) was tested. Which “MIC E. faecium L4001” value ([1]; L4001) did it give?
Its value is 0.5 µg/mL.

What about the “MIC S. pneumoniae” value ([2]; G9a) of the same compound?
Its value is 0.25 µg/mL.

What about the “MIC S. aureus 133” value [3]; 133 of the same compound?
Its value is 0.25 µg/mL.

And the “MIC E. faecalis ICB 27159” value ([4]; ICB 27159)?
The value was 1 µg/mL.
